Experimental data from patent US11260139B2, “Rapid surface disinfection method and apparatus” (priority 2011, dated 2022).

System: S. aureus bacteria
Assay: survival of S. aureus bacteria on agar culture plates following 3 sec. exposure to atomized liquid
Type: cell-based
Conditions: for antimicrobial effectiveness of the liquid as solvent of the nitric oxide solution: liquid atomized with NO, rank: ethanol>isopropanol>water
Procedure: The survival fraction is the fraction of at least 100 colonies that survive the treatment. Control plates were exposed to air for 3 sec. Ethanol plates were exposed to ethanol atomized with nitrogen. 25% NO plates were exposed to ethanol atomized with 25% NO and 75% nitrogen.
Experiments were conducted on agar culture plates to compare nitric oxide concentrations ranging from 0% in nitrogen (the ‘ethanol’ experiment) to 100% NO.

## [N]=O [NO, nitric oxide]
NO concentrations 0% to 100% in nitrogen compared
  effect of NO on the antimicrobial activity of the atomized liquid: dramatically increases the antimicrobial activity

## CCO [ethanol]
  antimicrobial effectiveness of the liquid as solvent of the nitric oxide solution: effective

## CC(C)O [isopropanol]
  antimicrobial effectiveness of the liquid as solvent of the nitric oxide solution: effective

## O [water]
  antimicrobial effectiveness of the liquid as solvent of the nitric oxide solution: effective
